These results are taken from ChEMBL document CHEMBL4825707, “Quantum mechanical study on the activation mechanism of human carbonic anhydrase VII cluster model with bis-histamine schiff bases and bis-spinaceamine derivatives” (Bioorg Med Chem, 2021).

The target of the assay is Carbonic anhydrase 7 (Homo sapiens) (UniProt P43166). In words: Activation of human carbonic anhydrase VII by stopped flow CO2 hydrase assay. As to conditions: Brain, filed as activator.
Carbonic anhydrase 7 (Homo sapiens), sequence (P43166 whole entry): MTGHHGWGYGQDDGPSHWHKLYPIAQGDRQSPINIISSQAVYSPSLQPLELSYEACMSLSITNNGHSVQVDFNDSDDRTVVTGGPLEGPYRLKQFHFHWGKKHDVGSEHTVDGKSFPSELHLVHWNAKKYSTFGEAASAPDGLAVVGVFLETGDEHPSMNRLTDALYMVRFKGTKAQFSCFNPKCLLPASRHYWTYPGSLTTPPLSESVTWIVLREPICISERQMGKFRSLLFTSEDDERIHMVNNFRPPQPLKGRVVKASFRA

The molecule `C(=N/CCc1c[nH]cn1)/c1ccc(/C=N/CCc2c[nH]cn2)o1` registered a Ka of 0.085 µM.

On to `c1nc2c([nH]1)C(c1ccc(C3NCCc4nc[nH]c43)cc1)NCC2` (stereo not drawn), for which the Ka turned out to be 0.032 µM.

`NCCc1c[nH]cn1` gave a Ka of 37.6 µM.

With `c1cc(C2NCCc3nc[nH]c32)cc(C2NCCc3nc[nH]c32)c1` (stereo not drawn), the Ka worked out at 0.039 µM.

`C(=N/CCc1c[nH]cn1)/c1ccccc1/C=N/CCc1c[nH]cn1` gave a Ka of 21.3 µM.

For the molecule `c1nc2c([nH]1)C(c1ccc(C3NCCc4nc[nH]c43)o1)NCC2` (stereo not drawn), the Ka came out at 0.035 µM.

`C(=N\CCc1c[nH]cn1)/c1ccc(/C=N/CCc2c[nH]cn2)cc1`: the Ka came to 9.02 µM.

`C(=N/CCc1c[nH]cn1)/c1cccc(/C=N/CCc2c[nH]cn2)c1` had a Ka of 18.7 µM.
